Assay results: the NIST ThermoML archive (doi:10.1016/j.tca.2007.08.008)
Numbers after ± are expanded uncertainties.

Tests used:
[1] = Liquid; for mass density: 303.15 K, 101.33 kPa, Pycnometric method; for Normal boiling temperature: Ebulliometric method (Recirculating still)
[2] = excess molar enthalpy (molar enthalpy of mixing); xn = mol fraction of the nth substance listed; settings: 298.15 K, 101.3 kPa, Liquid, Calvet calorimetry

CC(Cl)(Cl)Cl [1,1,1-trichloroethane]
[1]
Settings	Normal boiling temperature [°C]	mass density [kg/m3]
–	74.20 ± 0.2	1320.97 ± 1.3

CC(Cl)(Cl)Cl [1,1,1-trichloroethane] + C[S+](C)[O-]
[2]
Settings	excess molar enthalpy [kcal/mol]
x1 = 0.0243	-0.0102 ± 0.000311
x1 = 0.0579	-0.023 ± 0.000574
x1 = 0.109	-0.0422 ± 0.000956
x1 = 0.1532	-0.0563 ± 0.00127
x1 = 0.1973	-0.0679 ± 0.00151
x1 = 0.244	-0.0796 ± 0.00174
x1 = 0.2857	-0.087 ± 0.00191
x1 = 0.3462	-0.0932 ± 0.00203
x1 = 0.4106	-0.0986 ± 0.00215
x1 = 0.4797	-0.0987 ± 0.00215
x1 = 0.5571	-0.0945 ± 0.00208
x1 = 0.6064	-0.0869 ± 0.00191
x1 = 0.6632	-0.0775 ± 0.0017
x1 = 0.7189	-0.0666 ± 0.00148
x1 = 0.7771	-0.0526 ± 0.0012
x1 = 0.8537	-0.0323 ± 0.000765
x1 = 0.9297	-0.0102 ± 0.000311

ClC(Cl)C(Cl)Cl [1,1,2,2-tetrachloroethane]
[1]
Settings	Normal boiling temperature [°C]	mass density [kg/m3]
–	145.20 ± 0.2	1578.59 ± 1.5

ClC(Cl)C(Cl)Cl [1,1,2,2-tetrachloroethane] + C[S+](C)[O-]
[2]
Settings	excess molar enthalpy [kcal/mol]
x1 = 0.0378	-0.0704 ± 0.00155
x1 = 0.0688	-0.149 ± 0.00311
x1 = 0.1005	-0.229 ± 0.00502
x1 = 0.1295	-0.307 ± 0.00669
x1 = 0.1325	-0.309 ± 0.00669
x1 = 0.1565	-0.372 ± 0.00789
x1 = 0.1793	-0.423 ± 0.00908
x1 = 0.2167	-0.494 ± 0.0105
x1 = 0.2914	-0.652 ± 0.0139
x1 = 0.3555	-0.774 ± 0.0165
x1 = 0.4111	-0.839 ± 0.0179
x1 = 0.4577	-0.843 ± 0.0179
x1 = 0.4979	-0.84 ± 0.0179
x1 = 0.5577	-0.816 ± 0.0174
x1 = 0.6277	-0.755 ± 0.016
x1 = 0.6654	-0.712 ± 0.0151
x1 = 0.7123	-0.664 ± 0.0141
x1 = 0.7577	-0.609 ± 0.0129
x1 = 0.8121	-0.514 ± 0.011
x1 = 0.8537	-0.435 ± 0.00932
x1 = 0.9099	-0.252 ± 0.0055

ClCCCl [1,2-dichloroethane]
[1]
Settings	Normal boiling temperature [°C]	mass density [kg/m3]
–	83.80 ± 0.2	1238.41 ± 1.2

ClCCCl [1,2-dichloroethane] + C[S+](C)[O-]
[2]
Settings	excess molar enthalpy [kcal/mol]
x1 = 0.0732	-0.0141 ± 0.000382
x1 = 0.1296	-0.0219 ± 0.00055
x1 = 0.1713	-0.0257 ± 0.000621
x1 = 0.2259	-0.0301 ± 0.000717
x1 = 0.2783	-0.0361 ± 0.000837
x1 = 0.3275	-0.0458 ± 0.00105
x1 = 0.3609	-0.0548 ± 0.00122
x1 = 0.4054	-0.0712 ± 0.00158
x1 = 0.4636	-0.0899 ± 0.00196
x1 = 0.5266	-0.11 ± 0.00239
x1 = 0.6133	-0.138 ± 0.00311
x1 = 0.6613	-0.143 ± 0.00311
x1 = 0.7158	-0.131 ± 0.00287
x1 = 0.7593	-0.127 ± 0.00263
x1 = 0.8032	-0.106 ± 0.00232
x1 = 0.861	-0.0677 ± 0.00151
x1 = 0.9269	-0.0285 ± 0.000669

C[S+](C)[O-] [dimethyl sulfoxide]
[1]
Settings	Normal boiling temperature [°C]	mass density [kg/m3]
–	189.04 ± 0.2	1092.4 ± 1

ClC(Cl)=C(Cl)Cl [tetrachloroethene]
[1]
Settings	Normal boiling temperature [°C]	mass density [kg/m3]
–	121.00 ± 0.2	1606.39 ± 1.6

ClC(Cl)=C(Cl)Cl [tetrachloroethene] + C[S+](C)[O-]
[2]
Settings	excess molar enthalpy [kcal/mol]
x1 = 0.0544	0.0285 ± 0.000669
x1 = 0.1116	0.0584 ± 0.00131
x1 = 0.171	0.0912 ± 0.00201
x1 = 0.2237	0.117 ± 0.00263
x1 = 0.2735	0.141 ± 0.00311
x1 = 0.3306	0.155 ± 0.00335
x1 = 0.385	0.157 ± 0.00335
x1 = 0.477	0.139 ± 0.00311
x1 = 0.5162	0.123 ± 0.00263
x1 = 0.5695	0.105 ± 0.00227
x1 = 0.6333	0.0866 ± 0.00189
x1 = 0.701	0.0645 ± 0.00143
x1 = 0.7632	0.0522 ± 0.00117
x1 = 0.8252	0.0488 ± 0.0011
x1 = 0.8872	0.0456 ± 0.00103
x1 = 0.9519	0.0314 ± 0.000741

ClC=C(Cl)Cl [trichloroethene]
[1]
Settings	Normal boiling temperature [°C]	mass density [kg/m3]
–	87.10 ± 0.2	1451.42 ± 1.4

ClC=C(Cl)Cl [trichloroethene] + C[S+](C)[O-]
[2]
Settings	excess molar enthalpy [kcal/mol]
x1 = 0.0673	-0.0229 ± 0.000574
x1 = 0.1345	-0.0579 ± 0.00129
x1 = 0.2079	-0.106 ± 0.00232
x1 = 0.3016	-0.152 ± 0.00335
x1 = 0.3784	-0.153 ± 0.00335
x1 = 0.4461	-0.147 ± 0.00311
x1 = 0.4987	-0.14 ± 0.00311
x1 = 0.6022	-0.11 ± 0.00239
x1 = 0.6641	-0.102 ± 0.00222
x1 = 0.7014	-0.098 ± 0.00215
x1 = 0.737	-0.0976 ± 0.00213
x1 = 0.8114	-0.0854 ± 0.00186
x1 = 0.8611	-0.0706 ± 0.00155
x1 = 0.9151	-0.0481 ± 0.0011
